Numbers after ± are expanded uncertainties.
Conditions: 101.33 kPa, Liquid, transient hot wire

| SMILES | thermal conductivity (293 K) | thermal conductivity (303 K) | thermal conductivity (313 K) | thermal conductivity (323 K) | thermal conductivity (333 K) | thermal conductivity (343 K) | thermal conductivity (353 K) |
| --- | --- | --- | --- | --- | --- | --- | --- |
| CCCCCCCCn1cc[n+](C)c1.O=S(=O)([N-]S(=O)(=O)C(F)(F)F)C(F)(F)F | 0.128 ± 0.01 W/m/K | 0.128 ± 0.01 W/m/K | 0.128 ± 0.01 W/m/K | 0.126 ± 0.01 W/m/K | 0.126 ± 0.01 W/m/K | 0.125 ± 0.01 W/m/K | 0.126 ± 0.01 W/m/K |
| CCCCn1cc[n+](C)c1.O=S(=O)([O-])C(F)(F)F [1-butyl-3-methylimidazolium trifluoromethanesulfonate] | 0.147 ± 0.01 W/m/K | 0.146 ± 0.01 W/m/K | 0.145 ± 0.01 W/m/K | 0.144 ± 0.01 W/m/K | 0.144 ± 0.01 W/m/K | 0.143 ± 0.01 W/m/K | 0.142 ± 0.01 W/m/K |
| CCCC[N+]1(C)CCCC1.FC(F)(F)C(F)(F)[P-](F)(F)(F)(C(F)(F)C(F)(F)F)C(F)(F)C(F)(F)F | 0.107 ± 0.01 W/m/K | 0.106 ± 0.01 W/m/K | 0.106 ± 0.01 W/m/K | 0.105 ± 0.01 W/m/K | 0.105 ± 0.01 W/m/K | 0.105 ± 0.01 W/m/K | 0.105 ± 0.01 W/m/K |
| CCCC[n+]1ccn(C)c1.O=S(=O)([N-]S(=O)(=O)C(F)(F)F)C(F)(F)F | 0.128 ± 0.01 W/m/K | 0.127 ± 0.01 W/m/K | 0.127 ± 0.01 W/m/K | 0.126 ± 0.01 W/m/K | 0.125 ± 0.01 W/m/K | 0.124 ± 0.01 W/m/K | 0.124 ± 0.01 W/m/K |
| CCn1cc[n+](C)c1.O=S(=O)([N-]S(=O)(=O)C(F)(F)F)C(F)(F)F | 0.13 ± 0.01 W/m/K | 0.13 ± 0.01 W/m/K | 0.129 ± 0.01 W/m/K | 0.129 ± 0.01 W/m/K | 0.129 ± 0.01 W/m/K | 0.129 ± 0.01 W/m/K | 0.128 ± 0.01 W/m/K |
| CCCCCCCCCCn1cc[n+](C)c1.O=S(=O)([N-]S(=O)(=O)C(F)(F)F)C(F)(F)F | 0.132 ± 0.01 W/m/K | 0.131 ± 0.01 W/m/K | 0.13 ± 0.01 W/m/K | 0.129 ± 0.01 W/m/K | 0.128 ± 0.01 W/m/K | 0.128 ± 0.01 W/m/K | 0.128 ± 0.01 W/m/K |
| CCCCCC[n+]1ccn(C)c1.O=S(=O)([N-]S(=O)(=O)C(F)(F)F)C(F)(F)F | 0.127 ± 0.01 W/m/K | 0.127 ± 0.01 W/m/K | 0.127 ± 0.01 W/m/K | 0.126 ± 0.01 W/m/K | 0.125 ± 0.01 W/m/K | 0.125 ± 0.01 W/m/K | 0.125 ± 0.01 W/m/K |
| CCCCCCCCCCCCCC[P+](CCCCCC)(CCCCCC)CCCCCC.[Cl-] [trihexyl(tetradecyl)phosphonium chloride] | 0.161 ± 0.01 W/m/K | 0.16 ± 0.01 W/m/K | 0.159 ± 0.01 W/m/K | 0.157 ± 0.01 W/m/K | 0.157 ± 0.01 W/m/K | 0.156 ± 0.01 W/m/K | 0.155 ± 0.01 W/m/K |
| CCOS(=O)(=O)[O-].CCn1cc[n+](C)c1 [1-ethyl-3-methylimidazolium ethyl sulfate] | 0.182 ± 0.01 W/m/K | 0.181 ± 0.01 W/m/K | 0.181 ± 0.01 W/m/K | 0.179 ± 0.01 W/m/K | 0.179 ± 0.01 W/m/K | 0.178 ± 0.01 W/m/K | 0.177 ± 0.01 W/m/K |
| CCCCCCCCCCCCCC[P+](CCCCCC)(CCCCCC)CCCCCC.O=S(=O)([N-]S(=O)(=O)C(F)(F)F)C(F)(F)F | 0.144 ± 0.01 W/m/K | 0.143 ± 0.01 W/m/K | 0.142 ± 0.01 W/m/K | 0.141 ± 0.01 W/m/K | 0.141 ± 0.01 W/m/K | 0.14 ± 0.01 W/m/K | 0.139 ± 0.01 W/m/K |
| CCCC[N+]1(C)CCCC1.O=S(=O)([N-]S(=O)(=O)C(F)(F)F)C(F)(F)F | 0.125 ± 0.01 W/m/K | 0.125 ± 0.01 W/m/K | 0.124 ± 0.01 W/m/K | 0.124 ± 0.01 W/m/K |  |  |  |
